This note sets out measurements from the OPERA property sets (Mansouri et al. 2018).

In brackets after ≈: the same amount, converted by molar mass.

As to `COc1cccc(OC)c1OCCN(C)C`, the logP was found to be 1.05. The same measure, in the same setting: then `C=COCCn1cnc2c(=N)n(C)c(=O)[nH]c21`, with -0.24.

Consider `COc1cc(OC)ncn1`, for which the logP worked out at 0.96.

Regarding `c1ccc2c(c1)ccc1[nH]c3ccc4ccccc4c3c12`, the solubility was 0.236 µM (≈ 0.063 µg/mL). Same read-out and setting: the value for `CC(C)CC=O` was 163000 µM (≈ 14000 µg/mL). Turning to `CN1C(=O)C(O)CC1c1cccnc1` (configuration not stated), the logP was -1.45. On the same count and under the same terms, the value for `CN(C)C(=S)N(C)C` was 0.49; that for `C=CC(=O)NCCN1CCOCC1` was -0.55. Compound `CCOC(=O)C(C)OC(=O)c1cc(Oc2ccc(C(F)(F)F)cc2Cl)ccc1[N+](=O)[O-]` (configuration not stated) gave a solubility of 0.217 µM (≈ 0.1 µg/mL). Compound `BrC=C(Br)Br` showed a logP of 3.2. Compound `Cc1cn([C@H]2C[C@H](N=[N+]=[N-])[C@@H](CO)O2)c(=O)[nH]c1=S` returned a logP of 1.07.

In the case of `CNCCC=C1c2ccccc2CCc2ccccc21`, the logP is 4.51.

Take `COc1ccc(C(=O)CS(=O)(=O)c2ccccc2)cc1`: the logP is 2.18. The compound `COc1cc(Cl)c(Cl)c(Cl)c1Cl` returned a logP of 4.51. In turn, `CCN(O)CC` displayed a logP of -0.17. Same read-out and setting: then `O=C(O)c1ccc(-c2ccccc2)cc1`, with 3.75. Still for that read-out and setting: the value for `CCOCCn1cnc2c(=N)n(C)c(=O)[nH]c21` was -0.4. On the same count and under the same terms, then `CC1CCC(=O)N1C` (configuration not stated), with -0.07; and `CCN1CCCC1=O`, with -0.04; and `CC(C)c1ccc(Br)c(C(C)C)c1NC(=O)CN(CC(=O)O)CC(=O)O`, with 0.2.

The compound `Cc1ccccc1OCCNc1ccccc1C(N)=O` displayed a logP of 2.94. The same measure, in the same setting: then `N#CCCCCCCC#N`, with 0.59; and `Nc1cc(Cl)c(S(N)(=O)=O)cc1S(N)(=O)=O`, with -0.41; and `N#CCCN(N)c1nc2cc(Cl)ccc2o1`, with 1.72. Still for that read-out and setting: then `Nc1cccc2c(N)cccc12`, with 0.89. As for `Cc1c(CNc2ccccc2)cnc2nc(N)nc(N)c12`, the lipophilicity (logP) turned out to be 2.02.

`C#CCN(C)C(C)Cc1ccc(F)cc1` (configuration not stated) came in with a logP of 3.

`Clc1ccc(O[Si]23OCCN(CCO2)CCO3)cc1` had a logP of 0.6.

In the case of `COc1cc(N=Nc2c(Br)cc([N+](=O)[O-])cc2[N+](=O)[O-])c(NC(C)=O)c(N(CCOC(C)=O)CCOC(C)=O)c1`, the logP came to 4.44.

The compound `CCCCC(OC(Cc1ccccc1)C(=O)N1CCC(OCOC)CC1)C(=O)NC(CC1CCCCC1)C(O)CC(C(=O)NCCCNc1n[nH]c(N)n1)C(C)C` (configuration not stated) displayed a logP of 4.3. Regarding `Cc1ccc(Cl)cc1[N+](=O)[O-]`, the logP is 3.05.

`CCOP(=S)(OCC)Oc1cc(C)nc(C(C)C)n1` yielded a solubility of 131 µM (≈ 40 µg/mL). Regarding `CC(CCl)OC(C)CCl` (configuration not stated), the logP turned out to be 2.48. `CC(=O)OCCOCn1cnc2c(=O)[nH]c(N)nc21` yielded a logP of -1.07. On the same count and under the same terms, the value for `Cc1ccc(C=C(C#N)C#N)o1` was 2.03. Consider `CC(N)CCc1ccccc1` (configuration not stated), for which the logP stood at 2.12. Regarding `CCOC1OC2OC3(C)CCC4C(C)C(O)CC(C1C)C24OO3` (configuration not stated), the logP amounted to 2.14. On the same count and under the same terms, then `Clc1ccc(Cn2cncn2)cc1`, with 1.84. Take `CCCCC(=O)Oc1ccc(CC(N)C(=O)O)cc1` (configuration not stated): the logP was 0.07.

`COC(=O)C(C#N)=Cc1ccco1` returned a logP of 1.65. Consider `CCOP(=O)(CN(CCO)CCO)OCC`, for which the logP was -0.72. Same read-out and setting: the value for `CCOC(=O)c1ccccc1O` was 2.95.

For the compound `Clc1ccc2ccccc2c1`, the logP is 3.9. Same read-out and setting: the value for `CCOC1OC2OC3(C)CC(OC4OC(C(=O)O)C(O)C(O)C4O)C4C(C)CCC(C1C)C24OO3` (configuration not stated) was 1.73; that for `ClC(Cl)(Cl)c1nc(NCc2ccccc2)nc(C(Cl)(Cl)Cl)n1` was 4.93; that for `Nc1ccc2c(c1)Cc1cc(Br)ccc1-2` was 3.92.

In the case of `CCCCc1ccc(Cn2cncn2)cc1`, the logP is 2.81. `O=C(O)CN(CC(=O)O)Cc1cc2c(c(O)c1O)C(=O)c1ccccc1C2=O` had a solubility of 15600 µM (≈ 6000 µg/mL). For the compound `O=C(O)C(c1ccc(Cl)cc1)c1ccc(Cl)cc1`, the logP was 4.64. In the case of `Cc1ccc(C(C)C)c(Cl)c1Cl`, the logP amounted to 5.5. `CC(C)Nc1nc(N)nc(Cl)n1` had a logP of 1.51 and a solubility of 1970 µM (≈ 369 µg/mL). On to `C=CC(=O)NCCCN(C)C`, for which the logP stood at 0. The same measure, in the same setting: then `CC(CCC(=O)NCC(=O)O)C1CCC2C3CC(O)C4CC(O)CCC4(C)C3CCC12C` (configuration not stated), with 2.15; and `CC(=O)Nc1cc(NS(=O)(=O)C(F)(F)F)c(C)cc1C`, with 2.02. For `CCn1ccc(=O)c(O)c1`, the logP was -0.4. Still for that read-out and setting: the value for `CCCCCCCc1ccccc1` was 5.37; that for `CN(C)c1cnn(-c2ccccc2)c(=O)c1Cl` was 1.55. The same measure, in the same setting: the value for `CCCOC(=O)c1ccccc1O` was 3.8; that for `CCCc1oc(C)cc(=O)c1O` was 1.4; that for `COC1=CC(=O)C(OC)=C(OC)C1=O` was 0.22. Same read-out and setting: the value for `CC(=O)OC1CCC(C(C)(C)C)CC1` (configuration not stated) was 4.8. `[O-][n+]1ccc(Cl)c2ccc(Cl)cc21`: the logP came out at 1.85. Still for that read-out and setting: the value for `Cc1ccc(CN)cc1` was 1.46; that for `Cc1cc(Cl)ccc1OC(C)C(=O)O` (configuration not stated) was 3.13; that for `Cc1cccc(C)c1C#[N+][O-]` was 2.74. As for `CCCC(C)C(=O)O` (configuration not stated), the logP amounted to 1.8.

By logP is commonly meant the decadic logarithm of the partition coefficient of the neutral form, usually between octanol and water. A word on the solubility: it is the dissolved amount per volume that the medium holds. Low readings indicate little dissolved substance, high ones much dissolved substance.
